These results are taken from patent US5137897A, “2-substituted 4-(3-alkyl-5-tert.-butyl-4-hydroxyphenyl) thiazoles, processes for their preparation, pharmaceuticals containing them and their use” (Hoechst Aktiengesllschaft, priority 1989, dated 1992).

Assay [1] deals with Adjuvant arthritis (paw volume increase) in rats. Put plainly: Adjuvant arthritis (method of Pearson), antiinflammatory action on the 5th day. It is filed as in vivo, rat (male, Wistar-Lewis strain). To be noted: Rattus norvegicus, 120 h; for inhibition in vivo at 50 mg/kg: po, 50 mg/kg p.o. once daily, 1st to 5th day, vs untreated control, read-out: Adjuvant arthritis (% inhibition at 50 mg/kg orally); for ED50: adjuvant arthritis, oral, determined graphically from dose-response curve. As to the method:
The testing of the compounds of the formula I according to the invention for antiinflammatory action, influence on immunopathological processes, oxygen free radicaldeactivating properties and influence on arachidonic acid metabolism was carried out in the animal models and bioassays described in the following.
1. Adjuvant arthritis for influencing the antiinflammatory action (Table 2)
(§1) The investigations were carried out by the method of Pearson (Arthrit. Rheum. 1959, 2, 44). Male rats of a Wistar-Lewis strain having a body weight between 130 and 200 g were used as experimental animals. The compounds to be tested were administered orally (p. o.) once daily from the 1st to the 5th experimental day in doses of 50 mg per kg of body weight. The animals of one control group received only the vehicle. Each preparation group and the control group comprised 8 animals. The percentage reduction of the paw volume increase compared to that of the untreated control group was used as the criterion of action. The ED50 values were determined graphically from the dose-response curve.
(§2) 4-(3,5-Di-tert.-butyl-4-hydroxyphenyl)-2-methylthiazole i.e. the compound of the formula [drawing 26] according to US-A-4,535,165 mentioned at the beginning, was additionally included in this and the investigation below as a comparison preparation.

Assay [2] relates to Adjuvant arthritis (Perper modification; paw volume) in rats. Put plainly: Adjuvant arthritis (Perper modification), paw volume on the 21st day. It is filed as in vivo, rat (male, Wistar-Lewis strain). To be noted: for inhibition in vivo at 50 mg/kg: Rattus norvegicus, po, 504 h, 50 mg/kg/day, 1st to 12th day. As to the method:
as §1, §2
a) Adjuvant arthritis (Perper modification)
The animals were only treated from the 1st to the 12th experimental day in the experimental arrangement described in item 1. After a treatment-free interval of 9 days, determination of the paw volume of the left and right hind paw was carried out on the 21st day (compare Table 3).

Assay [3] is described as follows: Free radical scavenger properties (reaction with DPPH). To be noted: reaction with DPPH at 20° C.; determined graphically. Here is the method:
a) Free radical scavenger properties The testing in this test, which allows conclusions on the antioxidative potential of a substance, was carried out according to Smith et al., Biochem, Pharmacol. 1987. 36, 1456. In this test, the reaction of the compounds according to the invention with the stable free radical 1,1-diphenyl-2-picrylhydrazyl (DPPH) is monitored optically at 20° C. The rate constant K and reaction orders n in Table 5 were determined graphically in the customary manner.
Background: DPPH is a stable violet radical that fades when it is reduced.

Assay [4] concerns Arthus reaction (paw volume increase) in rats. Put plainly: Reverse passive Arthus reaction. The format is in vivo, rat (male Sprague-Dawley). As to the method: b) Reverse passive Arthus reaction
Male Sprague-Dawley rats having a body weight between 100 and 120 g. which had been divided into groups of 8 animals in each case, were used as experimental animals. The animals received a subplantar injection in the left hind paw of 0.5 mg of immunoglobulin in 0.1 ml of a sodium chloride solution 1 hour after oral administration of the test substance. After 4 hours, the Arthus reaction was measured, the percentage change in the paw volume increase compared to that of the control group treated only with vehicle being used as a measuring parameter for the action.

Assay [5] has as its system LTB4 formation in human neutrophils. Briefly: Influence on LTB4 formation in human neutrophils. Conditions: Neutrophil. It is filed as cell-based. As to the method: (§3) Moreover, the substances according to the invention were also characterized in cellular leukocyte systems in vitro as inhibitors of arachidonic acid metabolites. To detect the lipoxygenase metabolites, human neutrophils stimlated by calcium ionophore A 23 187 (70 mcmol/1) were incubated with ^14 C-arachidonic acid (81 mcmol/1) and the principal metabolites formed after 15 minutes at 37° C., such as 5-hydroxyeicosatetraenoic acid (5-HETE) and the more strongly proinflammatory leukotriene B4 (LTB4) were determined quantitatively (Tab. 6) with the aid of a radio monitor after separation by HPLC. The influence on the proinflammatory arachiconic acid metabolites thromboxane and LTB4 in cultures prepared from rat mast cells was determined in a corresponding manner (Tab. 7).

The test system of assay [6] is 5-HETE formation in human neutrophils. Put plainly: Influence on 5-HETE formation in human neutrophils. It is filed as cell-based. Conditions: Neutrophil. As to the method: as §3
In assay [7] the test system is Adjuvant arthritis (Perper modification; paw volume) in rats. Put plainly: Adjuvant arthritis (Perper modification), paw volume on the 21st day. It is filed as in vivo, rat (male, Wistar-Lewis strain). To be noted: Rattus norvegicus, po, 504 h, 1st to 12th day; for inhibition in vivo at 5 mg/kg: 5 mg/kg/day; for inhibition in vivo at 10 mg/kg: 10 mg/kg/day.
[8] abbreviates: read-out: % inhibition on the 21st day, Left paw.
The mark [9] stands for this setting: read-out: % inhibition on the 21st day, Right paw.

Read-outs that look alike come from different tables or passages of the source.

With `Cc1nc(-c2cc(C(C)(C)C)c(O)c(C(C)(C)C)c2)cs1` [Comparison preparation, 4-(3,5-Di-tert.-butyl-4-hydroxyphenyl)-2-methylthiazole, reference compound], the results for the inhibition in vivo at 50 mg/kg in assay [1], in assay [2] (setting [8]) and in assay [2] (setting [9]) were 67%, 12% and 21%, respectively. In addition, the “action in the Perper modification of adjuvant arthritis (in words)” value in assay [2] (comparison with preparation from US-A-4,535,165) is on record as “only a suggested action”.
For `CCOC(=O)CCc1nc(-c2cc(C(C)(C)C)c(O)c(C(C)(C)C)c2)cs1` [Example 1, Ethyl 3-[4-(3,5-di-tert.-butyl-4-hydroxyphenyl)thiazol-2-yl]propionate], the ED50 in assay [1] came to 5.7 mg/kg. The inhibition in vivo at 50 mg/kg was 73% in assay [1], 45% in assay [2] (setting [8]) and 49% in assay [2] (setting [9]). The reaction order n in assay [3] was < 1.
In assay [3], `CCOC(=O)C=Cc1nc(-c2cc(C(C)(C)C)c(O)c(C(C)(C)C)c2)cs1` [Example 2, Ethyl 3-[4-(3,5-di-tert.-butyl-4-hydroxyphenyl)thiazol-2-yl]acrylate] yielded a reaction order n of 1.
In the case of `CC(C)(C)c1cc(-c2csc(C=C3CCNC3=O)n2)cc(C(C)(C)C)c1O` [Example 4, 3-[4-(3,5-Di-tert.-butyl-4-hydroxyphenyl)thiazol-2-ylmethylidene]pyrrolidin-2-one], the inhibition in vivo at 50 mg/kg in assay [1] came to 54%.
As for `CC(C)(C)c1cc(-c2csc(C=NOCC(=O)O)n2)cc(C(C)(C)C)c1O` [Example 5], the inhibition in vivo at 50 mg/kg in assay [1] stood at 51%; in assay [2] (setting [8]), 20%; in assay [2] (setting [9]), 42%. Besides, the “% inhibition (Arthus reaction)” value in assay [4] (60 mg/kg orally) is 38%.
For the compound `CC(C)(OCc1nc(-c2cc(C(C)(C)C)c(O)c(C(C)(C)C)c2)cs1)C(=O)O` [Example 6], the inhibition in vivo at 50 mg/kg in assay [1] is 70%.
For `CC(C)(C)c1cc(-c2csc(CC(=O)O)n2)cc(C(C)(C)C)c1O` [Example 9], in assay [3], the reaction order n is < 1. In addition, the activity at 0.1 µM in assay [5] (0.1 μM, n = 6, read-out: LTB4 formation, Residual activity (%)) was 70 ± 12%; in assay [6] (0.1 μM, n = 6, read-out: 5-HETE formation, Residual activity (%)), 91.5 ± 10%. In addition, the activity at 1 µM in assay [5] (1 μM, n = 6, read-out: LTB4 formation, Residual activity (%)) came out at 79 ± 11%; in assay [6] (1 μM, n = 6, read-out: 5-HETE formation, Residual activity (%)), 80 ± 8%. Also, the activity at 10 µM came to 73 ± 12% in assay [5] (10 μM, n = 6, read-out: LTB4 formation, Residual activity (%)) and 75 ± 13% in assay [6] (10 μM, n = 6, read-out: 5-HETE formation, Residual activity (%)). Moreover, the activity at 100 µM was determined as 20.5 ± 11% in assay [5] (100 μM, n = 9, read-out: LTB4 formation, Residual activity (%)) and 21 ± 8% in assay [6] (100 μM, n = 9, read-out: 5-HETE formation, Residual activity (%)).
Consider `CC(C)(C)c1cc(-c2csc(CCCC(=O)O)n2)cc(C(C)(C)C)c1O` [Example 10], for which, in assay [1], the inhibition in vivo at 50 mg/kg worked out at 71%.
`CC(C)(C)c1cc(-c2csc(C=CC(=O)O)n2)cc(C(C)(C)C)c1O` [Example 11]: the ED50 in assay [1] is 12.6 mg/kg. Besides, the inhibition in vivo at 50 mg/kg in assay [1] came to 63%; in assay [2] (setting [8]), 44%; in assay [2] (setting [9]) it was 51%. In assay [3], the reaction order n came to 1.
Take `COC(=O)CCc1nc(-c2cc(C(C)(C)C)c(O)c(C(C)(C)C)c2)cs1` [Example 13]: the inhibition in vivo at 50 mg/kg in assay [1] came to 74%; in assay [2] (setting [8]) it was 44%; in assay [2] (setting [9]), 31%. In assay [3], the reaction order n amounted to 1.
For `CCOC(=O)CCc1nc(-c2cc(C(C)(C)C)c(O)c(C(C)(C)C)c2)c(C)s1` [Example 14], the results for the inhibition in vivo at 50 mg/kg in assay [1], in assay [2] (setting [8]) and in assay [2] (setting [9]) were 61%, 22% and 49%, respectively.
As for `Cc1cc(-c2csc(CCC(=O)O)n2)cc(C(C)(C)C)c1O` [Example 17], in assay [1], the ED50 is 7.5 mg/kg. Further, the inhibition in vivo at 50 mg/kg in assay [1] is 67%; in assay [2] (setting [8]), 60%; in assay [2] (setting [9]) it was 38%.
For `CC(C)(C)c1cc(-c2csc(CSCC(=O)O)n2)cc(C(C)(C)C)c1O` [Example 18], in assay [4] (100 mg/kg orally), the “% inhibition (Arthus reaction)” value is recorded as 50%. This compound also returned a reaction order n in assay [3] of 1.
With `CN(O)C(=O)CCc1nc(-c2cc(C(C)(C)C)c(O)c(C(C)(C)C)c2)cs1` [Example 19], in assay [1], the ED50 is 2.5 mg/kg and the inhibition in vivo at 50 mg/kg stood at 75%. For the same compound, in assay [4] (50 mg/kg orally), the “% inhibition (Arthus reaction)” value came to 45%. For the same compound, the reaction order n in assay [3] is < 1. Moreover, in assay [7] (setting [8]), the inhibition in vivo at 5 mg/kg was found to be 59% and the inhibition in vivo at 10 mg/kg came to 72%. Besides, in assay [7] (setting [9]), the inhibition in vivo at 5 mg/kg was 70% and the inhibition in vivo at 10 mg/kg amounted to 85%.
On to `CONC(=O)CCc1nc(-c2cc(C(C)(C)C)c(O)c(C(C)(C)C)c2)cs1` [Example 20], for which the inhibition in vivo at 50 mg/kg in assay [1] came to 66%; in assay [2] (setting [8]), 50%; in assay [2] (setting [9]) it was 35%.
With `CC(C)(C)c1cc(-c2csc(CCC(=O)Nc3nn[nH]n3)n2)cc(C(C)(C)C)c1O` [Example 21], the values for the inhibition in vivo at 50 mg/kg in assay [1], in assay [2] (setting [8]) and in assay [2] (setting [9]) were 65%, 42% and 54%, respectively. The “% inhibition (Arthus reaction)” value in assay [4] (50 mg/kg orally) worked out at 48%. The compound also gave a reaction order n in assay [3] of 1.

What is called ED50 is the midpoint of the dose-response relation.
